Results reported in patent publication US8088819B2, “Derivatives of substituted 3-phenyl-1-(phenylthienyl)propan-1-ones and of 3-phenyl-1-(phenylfuranyl) propan-1-ones, preparation and use” (priority 2006, dated 2012).
Several values for one entry are separate records, joined by “and”; a condition that tells them apart may be missing. Identical values can stand only once.

Tests used:
hPPARalpha [1] = molecular target: T1, hPPARalpha (Homo sapiens, UniProt Q07869); assay: PPAR activation: Gal4-hPPARα chimera luciferase transactivation in COS-7 cells, Method 2; type: cell-based; conditions: COS-7, 24 h; for EC50: 1% Ultroser; for Emax: maximum percentage response relative to the reference phenofibric acid, read-out: hPPARalpha % max
T1 construct: expressed in transfected cells; host or cells: COS-7 (monkey kidney fibroblasts)
T1 sequence (Q07869 239-466 limits assumed): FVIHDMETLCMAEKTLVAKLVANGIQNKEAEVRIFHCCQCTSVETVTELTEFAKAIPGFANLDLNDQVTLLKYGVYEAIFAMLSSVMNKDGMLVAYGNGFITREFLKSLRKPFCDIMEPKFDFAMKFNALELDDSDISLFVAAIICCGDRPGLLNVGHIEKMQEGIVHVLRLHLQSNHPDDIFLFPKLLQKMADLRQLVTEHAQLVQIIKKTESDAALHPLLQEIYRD
Experimental: (§1) The activation of the PPARs was evaluated in vitro on a line of monkey kidney fibroblasts (COS-7) by measuring the transcriptional activity of chimeras constituted of the DNA binding domain of the Gal4 transcription factor of yeast and the ligand binding domain of the various PPARs. The compounds were tested at doses between 10^−5 and […] on the chimeras Gal4-PPARα, γ or δ, and the corresponding EC50 values were determined.
(§2) The principle, the cells and the plasmids used for example 5 were also employed in this example. Only the application of the transfection stage is slightly different. The details are presented below.
(§3) The adherent COS-7 cells are transfected with 40 μg of DNA per 225 cm^2 dish, with a pGal4-PPAR/Gal4(RE)_TkpGL3 ratio of 1/10, in the presence of 10% fetal calf serum. The cells are then detached and seeded in the absence of serum in 384-well plates (2×10^4 cells/well) and incubated for 4 hours at 37° C. The compounds are then diluted in a 96-well plate and transferred to the 384-well plate. Activation with the test compounds is carried out for an additional 24 h at 37° C. in the presence of 1% of Ultroser™ lipid-free synthetic serum (Biosepra). These last 2 stages are automated using a Genesis Freedom 200™ station (Tecan). At the end of the experiment, the cells are lysed and the luciferase activity is determined using the Steady-Lite™ HTS (Perkin Elmer) following the supplier's recommendations.

hPPARgamma [2] = molecular target: T2, hPPARgamma (Homo sapiens, UniProt P37231); assay: PPAR activation: Gal4-hPPARγ chimera luciferase transactivation in COS-7 cells, Method 2; type: cell-based; conditions: COS-7, 24 h; for EC50: 1% Ultroser
T2 construct: expressed in transfected cells; host or cells: COS-7 (monkey kidney fibroblasts)
T2 sequence (P37231 238-503 limits assumed): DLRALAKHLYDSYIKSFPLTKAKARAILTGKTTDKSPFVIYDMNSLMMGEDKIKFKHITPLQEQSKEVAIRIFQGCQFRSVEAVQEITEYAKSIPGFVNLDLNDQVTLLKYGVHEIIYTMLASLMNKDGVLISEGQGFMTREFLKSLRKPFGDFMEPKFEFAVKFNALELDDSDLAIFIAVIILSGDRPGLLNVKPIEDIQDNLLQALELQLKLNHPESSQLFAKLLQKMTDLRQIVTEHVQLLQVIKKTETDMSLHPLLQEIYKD
Experimental: The activation of the PPARs was evaluated in vitro on a line of monkey kidney fibroblasts (COS-7) by measuring the transcriptional activity of chimeras constituted of the DNA binding domain of the Gal4 transcription factor of yeast and the ligand binding domain of the various PPARs.
Only the application of the transfection stage is slightly different. The details are presented below.
as §3

hPPARdelta [3] = molecular target: T3, hPPARdelta (Homo sapiens, UniProt Q03181); assay: PPAR activation: Gal4-hPPARδ chimera luciferase transactivation in COS-7 cells, Method 2; type: cell-based; conditions: COS-7, 24 h; for EC50: 1% Ultroser; for Emax: maximum percentage response relative to the reference GW501516, read-out: hPPARdelta % max
T3 construct: expressed in transfected cells; host or cells: COS-7 (monkey kidney fibroblasts)
T3 sequence (Q03181 211-439 limits assumed): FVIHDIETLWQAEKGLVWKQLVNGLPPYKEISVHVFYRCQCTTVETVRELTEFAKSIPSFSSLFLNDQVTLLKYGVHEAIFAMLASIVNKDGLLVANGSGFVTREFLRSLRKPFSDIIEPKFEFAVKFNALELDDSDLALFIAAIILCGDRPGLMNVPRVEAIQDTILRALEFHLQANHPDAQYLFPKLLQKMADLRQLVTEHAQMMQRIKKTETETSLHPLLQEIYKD
Experimental: as §1, §2, §3

hPPARalpha [4] = molecular target: T1, hPPARalpha; assay: PPAR activation: Gal4-hPPARα chimera luciferase transactivation in COS-7 cells, Method 1; type: cell-based; conditions: COS-7, 24 h; for Emax: maximum percentage response relative to the reference phenofibric acid, read-out: hPPARalpha % max
Experimental: as §1
(§4) The COS-7 cells were obtained from the ATCC and were cultivated in DMEM medium supplemented with 10% (v/v) of fetal calf serum, 100 U/ml of penicillin (Gibco, Paisley, UK) and 2 mM of L-glutamine (Gibco, Paisley, UK). The cells were incubated at 37° C. in a humid atmosphere containing 5% CO2.
(§5) The plasmids Gal4(RE)_TkpGL3, pGal4-hPPARα, pGal4-hPPARγ, pGal4-hPPARδ and pGal4-φ are described in the literature (Raspe E et al., 1999). The constructs pGal4-hPPARα, pGal4-hPPARγ and pGal4-hPPARδ were obtained by cloning DNA fragments amplified by PCR corresponding to the DEF domains of the human nuclear receptors PPARα, PPARγ and PPARδ in the pGal4-φ vector.
(§6) The COS-7 cells in suspension were transfected with 150 ng of DNA per well, with a pGal4-PPAR/Gal4(RE)_TkpGL3 ratio of 1/10, in the presence of 10% fetal calf serum. The cells were seeded in 96-well plates (4×10^4 cells/well) and then incubated at 37° C. for 24 hours. Activation with the test compounds is carried out for 24 h at 37° C. in serum-free medium. At the end of the experiment, the cells were lysed and the luciferase activity was determined using the Steady-Lite™ HTS (Perkin Elmer) following the supplier's recommendations.

hPPARgamma [5] = molecular target: T2, hPPARgamma; assay: PPAR activation: Gal4-hPPARγ chimera luciferase transactivation in COS-7 cells, Method 1; type: cell-based; conditions: COS-7, 24 h; for Emax: maximum percentage response relative to the reference rosiglitazone, read-out: hPPARgamma % max
Experimental: as §1, §4, §5, §6

hPPARdelta [6] = molecular target: T3, hPPARdelta; assay: PPAR activation: Gal4-hPPARδ chimera luciferase transactivation in COS-7 cells, Method 1; type: cell-based; conditions: COS-7, 24 h; for Emax: maximum percentage response relative to the reference GW501516, read-out: hPPARdelta % max
Experimental: as §1, §4, §5, §6

[7] = maximum percentage response relative to the reference rosiglitazone, Method 2, read-out: hPPARgamma % max
[8] = Method 2, read-out: hPPARgamma EC50

EC50 (hPPARalpha [1])	Emax (hPPARalpha [1])	Emax (hPPARgamma [2]; [7])	EC50 (hPPARgamma [2]; [8])	EC50 (hPPARdelta [3])	Emax (hPPARdelta [3])	melting point	Emax (hPPARalpha [4])	EC50 (hPPARgamma [5])	Emax (hPPARgamma [5])	EC50 (hPPARdelta [6])	Emax (hPPARdelta [6])	EC50 (hPPARalpha [4])	Emax (hPPARgamma [2]; read-out: hPPARgamma % max, maximum percentage response relative to the reference rosiglitazone, Method 2)	EC50 (hPPARgamma [2]; hPPARgamma EC50, Method 2)	Compound
						150 to 151 °C	48%	400 nM	49%	16 nM	95%				CC(C)(Oc1ccc(CCC(=O)c2ccc(-c3ccc(C(F)(F)F)cc3)s2)cc1F)C(=O)O [Compound 23, 2-(2-fluoro-4-(3-oxo-3-(5-(4-(trifluoromethyl)phenyl)thien-2-yl)propyl)phenoxy)-2-methylpropanoic acid]
						180 to 182 °C	61%		37%	114 nM	95%	60 nM			O=C(O)COc1ccc(CCC(=O)c2ccc(-c3ccc(C(F)(F)F)cc3)s2)cc1Br [Compound 34, 2-(2-bromo-4-(3-oxo-3-(5-(4-(trifluoromethyl)phenyl)thien-2-yl)propyl)phenoxy)acetic acid]
200 nM and 320 nM	44%			14 nM and 9 nM	89%	85 °C							37%	1840 nM and 810 nM	CC(C)(Oc1ccc(CCC(=O)c2ccc(-c3ccc(C(F)(F)F)cc3)o2)c(Cl)c1Cl)C(=O)O [Compound 38, 2-(2,3-dichloro-4-(3-oxo-3-(5-(4-(trifluoromethyl)phenyl)fur-2-yl)-propyl)phenoxy)-2-methylpropanoic acid]
						116 to 117 °C	52%		73%	109 nM	79%	4 nM			CCC(Oc1ccc(CCC(=O)c2ccc(-c3ccc(C(F)(F)F)cc3)s2)cc1)C(=O)O (stereo not drawn) [Compound 65, 2-(4-(3-oxo-3-(5-(4-(trifluoromethyl)phenyl)thien-2-yl)propyl)-phenoxy)butanoic acid]
						182 to 183 °C	61%	3530 nM	15%	292 nM	90%	33 nM			O=C(O)COc1ccc(CCC(=O)c2ccc(-c3ccc(C(F)(F)F)cc3)s2)cc1 [Compound 69, 2-(4-(3-oxo-3-(5-(4-(trifluoromethyl)phenyl)thien-2-yl)propyl)-phenoxy)acetic acid]

Further lines, the compound ahead of its results:

Compound	EC50 (hPPARalpha [1])	Emax (hPPARalpha [1])	Emax (hPPARgamma [2]; [7])	EC50 (hPPARgamma [2]; [8])	EC50 (hPPARdelta [3])	Emax (hPPARdelta [3])	melting point	Emax (hPPARalpha [4])	EC50 (hPPARgamma [5])	Emax (hPPARgamma [5])	EC50 (hPPARdelta [6])	Emax (hPPARdelta [6])	EC50 (hPPARalpha [4])	Emax (hPPARgamma [2]; read-out: hPPARgamma % max, maximum percentage response relative to the reference rosiglitazone, Method 2)	EC50 (hPPARgamma [2]; hPPARgamma EC50, Method 2)
CON=C(CCc1ccc(OC(C)(C)C(=O)O)c(Cl)c1Cl)c1ccc(-c2ccc(C(F)(F)F)cc2)s1 (mixture of isomers) [Compound 50, 2-(2,3-dichloro-4-(3-(methoxyimino)-3-(5-(4-(trifluoromethyl)-phenyl)thien-2-yl)propyl)phenoxy)-2-methylpropanoic acid]	260 nM	38%	32%	270 nM	50 nM	78%	68 to 69 °C								
O=C(O)COc1ccc(CCC(=O)c2ccc(-c3ccc(C(F)(F)F)cc3)s2)cc1F [Compound 25, 2-(2-fluoro-4-(3-oxo-3-(5-(4-(trifluoromethyl)phenyl)thien-2-yl)-propyl)phenoxy)acetic acid]	1680 nM	55%	27%	36500 nM	7450 nM	75%	170 to 171 °C								
CCC(Oc1ccc(CCC(=O)c2ccc(-c3ccc(C(F)(F)F)cc3)s2)cc1F)C(=O)O (stereo not drawn) [Compound 29, 2-(2-fluoro-4-(3-oxo-3-(5-(4-(trifluoromethyl)phenyl)thien-2-yl)-propyl)phenoxy)butanoic acid]							119 to 120 °C	56%	1270 nM	65%	37 nM	88%	2 nM		
CCC(Oc1ccc(CCC(=O)c2ccc(-c3ccc(C(F)(F)F)cc3)s2)cc1Br)C(=O)O (stereo not drawn) [Compound 32, 2-(2-bromo-4-(3-oxo-3-(5-(4-(trifluoromethyl)phenyl)thien-2-yl)propyl)phenoxy)butanoic acid]							126 to 128 °C	52%	210 nM	67%	36 nM	75%	8 nM		
CC(C)(Oc1ccc(CCC(=O)c2ccc(-c3ccc(C(F)(F)F)cc3)s2)cc1Br)C(=O)O [Compound 36, 2-(2-bromo-4-(3-oxo-3-(5-(4-(trifluoromethyl)phenyl)thien-2-yl)propyl)phenoxy)-2-methylpropanoic acid]							102 to 104 °C	47%		63%	9 nM	85%	5 nM		
CC(C)(Oc1ccc(CCC(=O)c2ccc(-c3ccc(OC(F)(F)F)cc3)s2)c(Cl)c1Cl)C(=O)O [Compound 44, 2-(2,3-dichloro-4-(3-oxo-3-(5-(4-(trifluoromethoxy)phenyl)thien-2-yl)propyl)phenoxy)-2-methylpropanoic acid]							135 to 136 °C	54%	100 nM	46%	27 nM	109%	16 nM		
CC(C)(Oc1ccc(CCC(=O)c2ccc(-c3ccc(Br)cc3)s2)c(Cl)c1Cl)C(=O)O [Compound 52, 2-(4-(3-(5-(4-bromophenyl)thien-2-yl)-3-oxopropyl)-2,3-dichloro-phenoxy)-2-methylpropanoic acid]	210 nM	53%	57%	1020 nM	50 nM	104%	155 to 157 °C								
CC(C)(Oc1ccc(CCC(OCc2ccccc2)c2cc(-c3ccc(C(F)(F)F)cc3)cs2)c(Cl)c1Cl)C(=O)O (stereo not drawn) [Compound 61, 2-(4-(3-(benzyloxy)-3-(4-(4-(trifluoromethyl)phenyl)thien-2-yl)propyl)-2,3-dichlorophenoxy)-2-methylpropanoic acid]							58 to 59 °C	42%	30 nM	78%	6 nM	101%	591 nM		
